Data reported in US20230270804A1, “ANTI-HYPERCHOLESTEROLEMIA COMPOSITION AND A METHOD OF MANUFACTURING THE SAME” (NBI BIOSCIENCES PRIVATE LIMITED, priority 2020, published 2023).

What was measured:
[1] = rat, in vivo
Experimental: The prophylactic study which lasted 90 days used 6 rats per group. […] The 6 groups were as follows: • 1. Normal Control • 2. High Fat Diet (HFD) 1 ml 1/d+Normal Diet • 3. High Fat Diet (HFD)+Normal Diet+the composition of the present invention (OD) • 4, High Fat Diet (HFD)+Normal Diet+the composition of the present invention (BD) • 5. […] The body weights were recorded to the nearest gram (g) with proper tare to 0.0000 with the subject at steady state on the weighing machine. The same weighing machine was used for all the subjects. The machine was tested with a known set of weights for any error.
The long-term rise in the electrolyte such as Na and are associated with blood pressure disorders impacting the heart.

[2] = Prophylactic study: HbA1c / blood glucose level; assay type: in vivo, Wistar strain albino rats; details: HFD fed groups
[3] = Prophylactic study: hematological parameters; assay type: in vivo, Wistar strain albino rats; details: HFD+normal diet; for Lymphocyte / Neutrophils: in % (unit assumed)
Experimental: Wistar strain albino rats of body weight ranging from 190-225 g were selected for the present study. The temperature and humidity were kept at optimum (22+2° C.; 40-70% and animals were exposed to natural chronological day night cycles. The experiments were carried out in conformity with the Institutional Animal Ethics Committee.
The 6 groups were as follows: • 1. Normal Control • 2.
1.5-2 ml blood sample was taken from retino-orbital chamber in vials for biochemical estimations at every 15 days. Investigations performed included detailed Total Cholesterol—TC (mg/dl), Triglyceride—TG (mg/dl), High Density Lipoprotein—HDL-C (mg/dl), Low Density Lipoprotein—LDL-C (mg/dl), Very Low-Density Lipoprotein—VLDL (mg/dl), WBC (10^3/u1), RBC (10^6/u1), Hb (g/dl), PCV (%), Reticulocyte (%), Platelet count 10^5/mm^3, Clotting time (Sec), Neutrophils, Lymphocyte, Monocyte and Eosinophil. The estimations were done with Ecoline kits from Erba Mannheim, ERBA diagnostics Mannheml, Germany using Semi Autoanalyzer RX50 of MicroLabs Instruments and COUNCELL21 of Tulip Diagnostics Pvt. Ltd. Lipid peroxidation (Plasma & Liver), HMG Co-Reductase, Creatine phosphokinase (CPK), Lactate dehydrogenase (LDH), SGOT and SGPT were estimated at the end of both the studies using the kits.

[4] = Therapeutic study: organ body weight after necropsy; assay type: in vivo, Wistar strain albino rats

CC(C)c1c(C(=O)Nc2ccccc2)c(-c2ccccc2)c(-c2ccc(F)cc2)n1CC[C@@H](O)C[C@@H](O)CC(=O)O [Statin, Atorvastatin]
Sodium and potassium level [1]: enhanced | Blood glucose level [2]: able to maintain Blood glucose level similar to normal diet group | Clotting time ([3]; day 0): 109.0 ± 1.10 s | Eosinophil ([3]; day 0): 1.1% | Hb ([3]; day 0): 11.95 ± 1.10 g/dL | Monocyte ([3]; day 0): 1.4% | PCV ([3]; day 0): 42.50 ± 1.80% | RBC ([3]; day 0): 7.20 ± 0.20 10^6/μl | Reticulocyte ([3]; day 0): 1.15 ± 0.05% | WBC ([3]; day 0): 8.90 ± 0.55 10^3/μl | Lymphocyte ([3]; day 0): 71.5 | Neutrophils ([3]; day 0): 26 | Clotting time ([3]; day 15): 107.45 ± 0.77 s | Eosinophil ([3]; day 15): 1.3% | Monocyte ([3]; day 15): 1.4% | PCV ([3]; day 15): 35.85 ± 1.11% | Platelet count ([3]; day 15): 905 ± 21.2 10³/µL | RBC ([3]; day 15): 7.20 ± 0.81 10^6/μl | Reticulocyte ([3]; day 15): 1.10 ± 0.11% | WBC ([3]; day 15): 9.79 ± 0.57 10^3/μl | Lymphocyte ([3]; day 15): 72.7 | Neutrophils ([3]; day 15): 24.6 | Clotting time ([3]; day 30): 110.0 ± 1.0 s | Eosinophil ([3]; day 30): 1.15% | Monocyte ([3]; day 30): 1.6% | Platelet count ([3]; day 30): 1060 ± 23.3 10³/µL | RBC ([3]; day 30): 7.20 ± 0.20 10^6/μl | Reticulocyte ([3]; day 30): 1.08 ± 0.10% | WBC ([3]; day 30): 9.03 ± 0.3 10^3/μl | Lymphocyte ([3]; day 30): 71.25 | Neutrophils ([3]; day 30): 26 | Clotting time ([3]; day 45): 114.0 ± 1.00 s | Eosinophil ([3]; day 45): 1.15% | Hb ([3]; day 45): 12.00 ± 1.20 g/dL | Monocyte ([3]; day 45): 1.4% | PCV ([3]; day 45): 42.10 ± 1.30% | RBC ([3]; day 45): 7.05 ± 0.21 10^6/μl | Reticulocyte ([3]; day 45): 1.25 ± 0.06% | WBC ([3]; day 45): 9.00 ± 0.50 10^3/μl | Lymphocyte ([3]; day 45): 71.45 | Neutrophils ([3]; day 45): 26 | Clotting time ([3]; day 60): 112.0 ± 1.05 s | Hb ([3]; day 60): 12.20 ± 1.12 g/dL | PCV ([3]; day 60): 43.10 ± 1.30% | RBC ([3]; day 60): 7.06 ± 0.31 10^6/μl | Reticulocyte ([3]; day 60): 1.35 ± 0.06% | WBC ([3]; day 60): 8.00 ± 0.60 10^3/μl | Lymphocyte ([3]; day 60): 71.45 | Neutrophils ([3]; day 60): 26 | Clotting time ([3]; day 75): 110.81 ± 5.86 s | Eosinophil ([3]; day 75): 1.22% | Hb ([3]; day 75): 12.82 ± 0.25 g/dL | Platelet count ([3]; day 75): 1070 ± 22.9 10³/µL | RBC ([3]; day 75): 7.36 ± 0.21 10^6/μl | Reticulocyte ([3]; day 75): 1.70 ± 0.05% | WBC ([3]; day 75): 8.71 ± 0.23 10^3/μl | Lymphocyte ([3]; day 75): 71.12 | Neutrophils ([3]; day 75): 26.28 | Clotting time ([3]; day 90): 111.00 ± 5.57 s | Eosinophil ([3]; day 90): 1.35% | Hb ([3]; day 90): 12.78 ± 0.28 g/dL | Platelet count ([3]; day 90): 1070 ± 22.9 10³/µL | RBC ([3]; day 90): 7.37 ± 0.20 10^6/μl | Reticulocyte ([3]; day 90): 1.73 ± 0.02% | WBC ([3]; day 90): 8.76 ± 0.19 10^3/μl | Lymphocyte ([3]; day 90): 70.82 | Neutrophils ([3]; day 90): 26.37 | Intestine (organ body weight after necropsy) ([4]; HFD Continued): 2.00 ± 0.02 | Kidney (organ body weight after necropsy) ([4]; HFD Continued): 2.82 ± 0.06 g/100 g bd. wt | Liver (organ body weight after necropsy) ([4]; HFD Continued): 4.51 ± 0.12 g/100 g | Lungs (organ body weight after necropsy) ([4]; HFD Continued): 0.65 ± 0.03 g/100 g bd. wt | Pancrease (organ body weight after necropsy) ([4]; HFD Continued): 0.89 ± 0.05 g/100 g bd. wt | Spleen (organ body weight after necropsy) ([4]; HFD Continued): 1.19 ± 0.02 | Intestine (organ body weight after necropsy) ([4]; HFD Discontinued): 2.00 ± 0.02 | Kidney (organ body weight after necropsy) ([4]; HFD Discontinued): 2.84 ± 0.04 g/100 g bd. wt | Liver (organ body weight after necropsy) ([4]; HFD Discontinued): 4.37 ± 0.05 g/100 g | Lungs (organ body weight after necropsy) ([4]; HFD Discontinued): 0.66 ± 0.03 g/100 g bd. wt | Pancrease (organ body weight after necropsy) ([4]; HFD Discontinued): 0.91 ± 0.03 g/100 g bd. wt | Spleen (organ body weight after necropsy) ([4]; HFD Discontinued): 1.17 ± 0.03
